According to patent US9155741B2, “Methods of using a methylxanthine compound” (The Trustees of the University of Pennsylvania, priority 2008, dated 2015):

Experiments:
[1] = target: T1, cytochrome oxidase (CcOX) (Rattus norvegicus, UniProt P05503); experiment: Myocardial cytochrome oxidase steady-state kinetic activity in isolated cardiac mitochondria after CLP or sham operation; type: in vivo
T1 construct: from tissue; host or cells: mitochondria isolated from cardiac ventricles of Sprague-Dawley rats
Protocol: (§1) The care of the animals in this study was in accordance with NIH and Institutional Animal Care and Use Committee guidelines. Under isoflurane general anesthesia (up to 2%), 250 g male Sprague-Dawley rats (Charles River, Boston, Mass., USA) underwent cecal ligation and double puncture (CLP) with an 18-gauge needle or sham operation as previously described. All animals were administered 50 ml/kg saline subcutaneously immediately post procedure and every 24 hours. Once awake, animals were given access to food and water ad libitum.
(§2) Twenty four and 48 hours post-procedure, rats received either an intraperitoneal (i.p) injection of caffeine (7.5 mg/kg, Sigma-Aldrich, St. Louis, Mo.) or equal volume saline (1 mL). […] Four cohorts were evaluated: SHAM saline, SHAM caffeine, CLP saline, CLP caffeine. […]
(§3) Cardiac ventricles were harvested and homogenized in ice-cold H medium (70 mM sucrose, 220 mM mannitol, 2.5 mM Hepes, pH 7.4 and 2 mM EDTA). […] Pellets were again resuspended in H medium and mitochondrial protein concentration determined using the method of Lowry.
CcOX kinetics were assayed by the method of Smith in which the rate of oxidation of ferrocytochrome c was measured by following the decrease in absorbance at 550 nm. […] Specific activity was calculated from mean values of three to four measurements using 21.1 mM−cm^−1 as the extinction coefficient of ferrocytochrome c at 550 nm. […]

[2] = system: cecal ligation and puncture (CLP) sepsis model; experiment: Survival to 96 hours following CLP or sham operation; type: in vivo, rat
Protocol: as §1
The survival was followed in a separate cohort of animals in this two treatment parallel-design study to 96 hours. Each animal was injected with either caffeine (7.5 mg/kg i.p.) or equal volume of saline (1 mL i.p.) every 24 hours beginning 24 hours following CLP or sham operation. Twenty animals per group were evaluated based on the probability being 80 percent that the study will detect a treatment difference at a two-sided 5.0 percent significance level, if the true hazard ratio is 3.
Data are presented as mean +/− standard deviation. Statistical significance was assessed using ANOVA and post hoc Tukey's test with p<0.05. Statistical significance in the survival study was assessed using Kaplan-Meier survival curves and Mantel-Cox log-rank test.

[3] = system: cytochrome oxidase subunit I (CcOX-I); experiment: Immunoblot of steady-state levels of cardiac cytochrome oxidase subunit I; type: in vivo, rat; conditions: between all groups (SHAM/CLP, saline/caffeine), normalized to porin
Protocol: as §1, §2, §3
10 μg samples of mitochondrial protein were subjected to SDS-acrylamide gel electrophoresis and immunoblotting. […] The signal was detected with enhanced chemiluminescence (ECL; Amersham Pharmacia Biotech, Piscataway, N.J., USA), and density was measured using scanning densitometry. Five animals per group per experiment were evaluated.

isolated rat heart = experiment: Isolated rat heart preparation (left ventricular function, coronary perfusion, oxygen extraction and consumption) after CLP or sham operation; type: in vivo; conditions: for heart rate: mean +/- SD
Protocol: as §1
Twenty four and 48 hours post-procedure, rats received either an intraperitoneal (i.p) injection of caffeine (7.5 mg/kg, Sigma-Aldrich, St. Louis, Mo.) or equal volume saline (1 mL). Rats were sacrificed one hour after the 48 hour injection following euthanasia with 150 mg/kg of intraperitoneal pentobarbital. Four cohorts were evaluated: SHAM saline, SHAM caffeine, CLP saline, CLP caffeine. N=5 per group. The 24-hour time point was chosen for initial intervention based on the onset of the hypodynamic phase when cardiac function begins to deteriorate and the presence of reversible CcOX inhibition. Studies were performed at the 48-hour time point because this time point represents the late phase of sepsis when cardiac function is markedly depressed and mortality is 75%.
Rats were anesthetized with intraperitoneal pentobarbital (70 mg/kg) and heparinized (1000 U IP). The heart was excised rapidly and the aorta was cannulated. Retrograde perfusion was initiated at constant flow (12 mL/g-min) with a modified Krebs-Henseleit buffer containing (mmol/L) NaCl 120, KCl 4.7, MgSO4 1.2, KH2PO4 1.2, CaCl2 1.25, NaHCO3 25, and glucose. The non-recirculating buffer was maintained at pH 7.4 equilibrated with 95% O2-5% CO2 at 37° C. Isovolumetric left ventricle pressure (LVP) was measured with a transducer connected to a saline-filled latex balloon inserted into the left ventricle through the left atrium. The balloon was inflated to maintain an end-diastolic pressure of 10 mmHg Hearts were immersed in a water-jacketed chamber maintained at 37° C. and allowed to stabilize for 30 minutes.
Heart rate, LVP, the maximum rate of positive and negative change in LVP (+/−dP/dt), and aortic pressure were collected with an analog-to-digital converter system (Power Laboratory 4SP, ADlnstruments, Castle Hill, Australia). […] Measurements were obtained at coronary flow rates (CF) of 12, 10, 8, 6, and 4 mL/g-min Coronary inflow oxygen tension (PaO2) and coronary sinus oxygen tension (PvO2) were measured (GEM Premier 3000, Instrumentation Laboratory, Belgium). Percent O2 extraction was calculated as 100×(PaO2-PvO2/PaO2). Myocardial O2 consumption (MO2) was calculated as CF/g×(PaO2-PvO2)×O2 solubility at 760 mmHg O2 solubility is 24 |il/ml H2O at 37° C. Coronary perfusion pressure was calculated as the difference between mean aortic pressure and LV end-diastolic pressure. Coronary resistance was calculated by dividing perfusion pressure by coronary flow.

[4] = CLP caffeine, 12 mL/g-min coronary flow, compared to saline injected sham values (so in the source)
[5] = CLP caffeine, toward saline injected sham values, most flow rates
[6] = sham caffeine vs both CLP groups, all coronary flow rates
[7] = sham caffeine vs saline injected sham, highest flow rates

Structure (SMILES): Cn1c(=O)c2c(ncn2C)n(C)c1=O [caffeine]
- myocardial CcOX kinetic activity normalized to citrate synthase activity ([1]; CLP rats, 48 hours, caffeine 7.5 mg/kg i.p. at 24 and 48 hours, vs sham): restored CcOX kinetic activity in CLP rats to sham values
- myocardial CcOX kinetic activity normalized to citrate synthase activity ([1]; sham animals, caffeine injected vs saline injected): no significant difference
- animals survived to 48 hours ([2]; CLP, caffeine 7.5 mg/kg i.p. daily from 24 hours, 48 hours): Eighty
- animals survived to 72 hours ([2]; CLP, caffeine 7.5 mg/kg i.p. daily from 24 hours, 72 hours): 55%
- animals survived to 96 hours ([2]; CLP, caffeine 7.5 mg/kg i.p. daily from 24 hours, 96 hours): 40%
- mortality ([2]; sham operation, caffeine 7.5 mg/kg i.p. daily, to 96 hours): no mortality
- steady-state myocardial CcOX I levels [3]: no significant difference
- coronary resistance (isolated rat heart; CLP caffeine vs CLP saline): significantly increased
- coronary perfusion pressure (isolated rat heart; CLP caffeine vs CLP saline, 12 mL/g-min coronary flow): significantly increased
- left ventricular pressure (LVP) (isolated rat heart; CLP caffeine vs CLP saline, all flow rates greater than 4 mL/g-min): significantly improved
- left ventricular pressure (LVP) (isolated rat heart; CLP caffeine vs saline injected sham, flow rates except 12 mL/g-min): approached saline injected sham values
- left ventricular pressure (LVP) (isolated rat heart; CLP caffeine vs sham cohorts, 12 mL/g-min coronary flow): significantly lower than both sham cohorts
- coronary perfusion pressure (isolated rat heart; CLP caffeine vs sham controls, almost all coronary flow rates): significant reductions
- myocardial oxygen consumption (isolated rat heart; [4]): significantly increased
- myocardial oxygen extraction (isolated rat heart; [4]): significantly increased
- heart rate (isolated rat heart; CLP caffeine): 262+/−11 bpm
- +dP/dt (isolated rat heart; [5]): significantly improved
- −dP/dt (isolated rat heart; [5]): significantly improved
- left ventricular pressure (LVP) (isolated rat heart; sham caffeine vs all other groups, highest coronary flow rates): significantly increased
- myocardial oxygen consumption (isolated rat heart; sham caffeine vs both CLP cohorts, 12 mL/g-min coronary flow): significantly increased
- +dP/dt (isolated rat heart; [6]): significantly increased
- −dP/dt (isolated rat heart; [6]): significantly increased
- +dP/dt (isolated rat heart; [7]): significantly increased
- −dP/dt (isolated rat heart; [7]): significantly increased
- coronary resistance (isolated rat heart; sham caffeine vs sham saline): significantly decreased
- coronary perfusion pressure (isolated rat heart; sham caffeine vs sham saline, highest flow rate): significantly reduced
- heart rate (isolated rat heart; sham caffeine): 276+/−11 bpm
